For 18 compounds, T/C results are on record in PubChem BioAssay AID248 (DTP/NCI, 2004).

Toxic doses and inconclusive results are not listed.

This assay relates to L1210 leukemia ip in BDF1 mice, survival T/C. The assay is described as follows: NCI In Vivo Anticancer Drug Screen. Data for tumor model L1210 Leukemia (intraperitoneal) in B6D2F1 (BDF1) mice. The following applies: endpoint: mean survival time, higher = longer survival. The essentials: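 Each compound was tested against a transplantable tumor grown in mice. The endpoint was survival, with treated animals benchmarked against vehicle controls as a simple ratio.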

Where [1] appears, read: dose: 50.0 mg/kg/injection, schedule: Q01DX009 (ip), vehicle: Klucel (hydroxypropylcellulose) (HPC).
The mark [2] stands for this setting: dose: 100.0 mg/kg/injection, schedule: Q01DX009 (ip), vehicle: Klucel (hydroxypropylcellulose) (HPC).
[3] abbreviates: dose: 200.0 mg/kg/injection, schedule: Q01DX009 (ip), vehicle: Klucel (hydroxypropylcellulose) (HPC).
[4] abbreviates: dose: 400.0 mg/kg/injection, schedule: Q04DX003 (ip), vehicle: Klucel (hydroxypropylcellulose) (HPC).
Where [5] appears, read: dose: 100.0 mg/kg/injection, schedule: Q04DX002 (ip), vehicle: Klucel (hydroxypropylcellulose) (HPC).
The mark [6] stands for this setting: dose: 100.0 mg/kg/injection, schedule: Q01DX001 (ip), vehicle: saline.
The mark [7] stands for this setting: dose: 100.0 mg/kg/injection, schedule: Q04DX003 (ip), vehicle: saline with Tween-80.
Setting [8] is: dose: 200.0 mg/kg/injection, schedule: Q04DX003 (ip), vehicle: saline with Tween-80.
Setting [9] is: dose: 400.0 mg/kg/injection, schedule: Q04DX003 (ip), vehicle: saline with Tween-80.

For `CCOC(=O)c1ccc(N(N=O)C(C)C)cc1`, the T/C runs as follows: (dose: 100.0 mg/kg/injection, schedule: Q04DX002 (ip), vehicle: saline with Tween-80) 101 % of control; (dose: 200.0 mg/kg/injection, schedule: Q04DX002 (ip), vehicle: saline with Tween-80) 86 % of control; (dose: 400.0 mg/kg/injection, schedule: Q04DX002 (ip), vehicle: saline with Tween-80) 97 % of control.
`OC1CC2CCC1C21OCCO1` (stereo not drawn): the T/C reads like this: (dose: 100.0 mg/kg/injection, schedule: Q01DX009 (ip), vehicle: saline) 107 % of control; (dose: 200.0 mg/kg/injection, schedule: Q01DX009 (ip), vehicle: saline) 100 % of control; (dose: 400.0 mg/kg/injection, schedule: Q01DX009 (ip), vehicle: saline) 109 % of control.
`COCCOC(=O)C(=O)OCCOC`: the T/C by setting is: under setting [1], 95 % of control; (dose: 100.0 mg/kg/injection, schedule: Q01DX001 (ip), vehicle: Klucel (hydroxypropylcellulose) (HPC)) 97 % of control; under setting [2], 97 % of control; (dose: 200.0 mg/kg/injection, schedule: Q01DX001 (ip), vehicle: Klucel (hydroxypropylcellulose) (HPC)) 90 % of control; under setting [3], 93 % of control.
Take `Nc1nc(SCc2ccccn2)c2[nH]cnc2n1`: the T/C by setting is: (dose: 45.0 mg/kg/injection, schedule: Q04DX003 (ip), vehicle: Klucel (hydroxypropylcellulose) (HPC)) 121 % of control; (dose: 65.0 mg/kg/injection, schedule: Q04DX003 (ip), vehicle: Klucel (hydroxypropylcellulose) (HPC)) 124 % of control; under setting [4], 155 % of control.
On to `CN(CC#CCOc1ccc(Cl)cc1Cl)c1ccccc1`, for which the T/C by setting is: under setting [5], 102 % of control; (dose: 200.0 mg/kg/injection, schedule: Q04DX002 (ip), vehicle: Klucel (hydroxypropylcellulose) (HPC)) 98 % of control; (dose: 400.0 mg/kg/injection, schedule: Q04DX002 (ip), vehicle: Klucel (hydroxypropylcellulose) (HPC)) 91 % of control.
As to `Cc1c(S(=O)(=O)F)ccc(O)c1[N+](=O)[O-]`, the T/C was 104 % of control under setting [2]; 104 % of control under setting [3]; 110 % of control (dose: 400.0 mg/kg/injection, schedule: Q01DX009 (ip), vehicle: Klucel (hydroxypropylcellulose) (HPC)).
As to `CCN1C(=O)CC2CCCC1C2` (stereo not drawn), the T/C under setting [6] was 90 % of control.
With `CC(=O)ONC(=O)C(N)=O`, the T/C (dose: 50.0 mg/kg/injection, schedule: Q01DX001 (ip), vehicle: saline) is 95 % of control; the T/C under setting [6] is 101 % of control; the T/C (dose: 200.0 mg/kg/injection, schedule: Q01DX001 (ip), vehicle: saline) was 95 % of control; the T/C (dose: 400.0 mg/kg/injection, schedule: Q01DX001 (ip), vehicle: saline) is 103 % of control.
As to `O=NN(CCN(N=O)c1ccccc1)c1ccccc1`, the T/C was 97 % of control (dose: 100.0 mg/kg/injection, schedule: Q01DX001 (ip), vehicle: other); 104 % of control (dose: 100.0 mg/kg/injection, schedule: Q04DX003 (ip), vehicle: other); 97 % of control (dose: 200.0 mg/kg/injection, schedule: Q01DX001 (ip), vehicle: other); 101 % of control (dose: 200.0 mg/kg/injection, schedule: Q04DX003 (ip), vehicle: other); 92 % of control (dose: 400.0 mg/kg/injection, schedule: Q01DX001 (ip), vehicle: other); 97 % of control (dose: 400.0 mg/kg/injection, schedule: Q04DX003 (ip), vehicle: other).
Turning to `O=C1NC(=O)C2(CCCc3ccccc32)N1` (stereo not drawn), the T/C is 110 % of control (dose: 25.0 mg/kg/injection, schedule: Q04DX002 (ip), vehicle: Klucel (hydroxypropylcellulose) (HPC)); 104 % of control (dose: 50.0 mg/kg/injection, schedule: Q04DX002 (ip), vehicle: Klucel (hydroxypropylcellulose) (HPC)); 100 % of control under setting [5].
With `CC(=O)[C@]1(O)Cc2c(O)c3c(c(O)c2[C@@H](OC2CC(N)C(O)C(C)O2)C1)C(=O)c1c(O)cccc1C3=O` (stereo partly drawn), the T/C by setting is: (dose: 0.05 mg/kg/injection, schedule: Q03DX003 (ip), vehicle: saline) 109 % of control; (dose: 0.1 mg/kg/injection, schedule: Q03DX003 (ip), vehicle: saline) 123 % of control; (dose: 0.2 mg/kg/injection, schedule: Q01DX001 (ip), vehicle: saline) 122 % of control; (dose: 0.4 mg/kg/injection, schedule: Q01DX009 (ip), vehicle: saline) 154 % of control; (dose: 0.4 mg/kg/injection, schedule: Q03DX003 (ip), vehicle: saline) 157 % of control; (dose: 0.8 mg/kg/injection, schedule: Q01DX001 (ip), vehicle: saline) 192 % of control. Further, the T/C was 98 % of control (dose: 0.8 mg/kg/injection, schedule: Q01DX009 (ip), vehicle: saline); 159 % of control (dose: 0.8 mg/kg/injection, schedule: Q03DX003 (ip), vehicle: saline); 166 % of control (dose: 1.6 mg/kg/injection, schedule: Q01DX001 (ip), vehicle: saline).
As for `COc1ccc(/C=N\NC(=O)c2ccccc2)cc1`, the T/C is 102 % of control under setting [7], 103 % of control under setting [8] and 92 % of control under setting [9].
With `CC[PH+]1c2ccccc2-c2ccccc21.CC[PH+]1c2ccccc2-c2ccccc21.CC[PH+]1c2ccccc2-c2ccccc21.[Br][Ni][Br]`, the T/C (dose: 12.5 mg/kg/injection, schedule: Q04DX003 (ip), vehicle: saline with Tween-80) is 98 % of control; the T/C (dose: 25.0 mg/kg/injection, schedule: Q04DX003 (ip), vehicle: saline with Tween-80) was 98 % of control; the T/C (dose: 50.0 mg/kg/injection, schedule: Q04DX003 (ip), vehicle: saline with Tween-80) was 102 % of control.
Regarding `Cc1ccc(S/N=C/c2c(O)ccc3ccccc23)cc1`, the T/C is 91 % of control (dose: 100.0 mg/kg/injection, schedule: Q04DX002 (ip), vehicle: other); 102 % of control (dose: 200.0 mg/kg/injection, schedule: Q04DX002 (ip), vehicle: other); 94 % of control (dose: 400.0 mg/kg/injection, schedule: Q04DX002 (ip), vehicle: other).
As to `OCCNc1ncnc2ccccc12`, the T/C was 98 % of control under setting [7], 104 % of control under setting [8] and 104 % of control under setting [9].
For the compound `CC(C)CC(NC(=O)c1ccccc1)C(=O)O` (stereo not drawn), the T/C is 88 % of control (dose: 200.0 mg/kg/injection, schedule: Q01DX009 (ip), vehicle: saline with Tween-80); 97 % of control (dose: 264.0 mg/kg/injection, schedule: Q01DX009 (ip), vehicle: saline with Tween-80); 92 % of control (dose: 600.0 mg/kg/injection, schedule: Q01DX009 (ip), vehicle: saline with Tween-80).
In the case of `CC(C)=CC(=O)NC(=O)NS(=O)(=O)c1ccc(Cl)cc1`, the T/C is 100 % of control under setting [1]; 107 % of control under setting [2]; 105 % of control (dose: 100.0 mg/kg/injection, schedule: Q04DX003 (ip), vehicle: Klucel (hydroxypropylcellulose) (HPC)); 98 % of control under setting [3]; 102 % of control (dose: 200.0 mg/kg/injection, schedule: Q04DX003 (ip), vehicle: Klucel (hydroxypropylcellulose) (HPC)); 106 % of control under setting [4].
Take `CCc1ccc(NC2=C(OC)C(=O)C(Nc3ccc(CC)cc3)=C(OC)C2=O)cc1`: the T/C reads like this: (dose: 50.0 mg/kg/injection, schedule: Q01DX001 (ip), vehicle: carboxymethylcellulose (CMC)) 98 % of control; (dose: 100.0 mg/kg/injection, schedule: Q01DX001 (ip), vehicle: carboxymethylcellulose (CMC)) 93 % of control; (dose: 200.0 mg/kg/injection, schedule: Q01DX001 (ip), vehicle: carboxymethylcellulose (CMC)) 98 % of control; (dose: 400.0 mg/kg/injection, schedule: Q01DX001 (ip), vehicle: carboxymethylcellulose (CMC)) 90 % of control.
